# Assay results from US20260285857A1, “BICYCLIC AND HETEROCYCLIC AMIDE COMPOUNDS” (priority 2024, published 2026).
# Test system: immunoglobulin light chain protein WIL-FL T46L
# Assay: Differential scanning fluorimetry (thermal shift) assay
# Format: binding
# Settings: Table A; temperature shift [Tm]compound-[Tm]vehicle; recombinant WIL-FL T46L
row,SMILES,DSF
1,C[C@]1(c2ccccc2)CCN(c2cc(CO)c3nc(C(=O)N4CCC5(CCN(c6ccnc(C(=O)O)c6)C5)C4)nn3c2)C1 (stereo partly drawn) [Compound 334],***** (>2.5° C.=*****)
2,Cc1cc(N2CC[C@](C)(c3ccccc3)C2)cn2nc(C(=O)NC3C4CCC3NC4)nc12 (stereo partly drawn) [Compound 201],***** (>2.5° C.=*****)
3,Cc1cc(N2CC[C@](C)(c3ccccc3)C2)cn2nc(C(=O)NCC(C)(C)C(=O)O)nc12 [Compound 136],***** (>2.5° C.=*****)
4,Cc1cc(N2CCC(C)(c3nccs3)C2)cn2nc(C(=O)N3CC[C@@]4(CCN(c5cccc(C(=O)O)n5)C4)C3)nc12 (stereo partly drawn) [Compound 99],**** (>1.5-2.5° C.=****)
5,Cc1cc(N2CC[C@](C)(c3ccccc3)C2)cn2nc(C(=O)NCC34COC(C3)C4)nc12 [Compound 122],***** (>2.5° C.=*****)
6,CNC(=O)c1nc2c(CO)cc(N3CC[C@](C)(c4ccccc4)C3)cn2n1 [Compound 351],***** (>2.5° C.=*****)
7,Cc1nc(C2C3COC2(c2nc4c(CO)cc(N5CC[C@](C)(c6ccccc6)C5)cn4n2)C3)n[nH]1 (stereo partly drawn) [Compound 344],***** (>2.5° C.=*****)
8,Cc1cc(N2CC[C@](C)(c3ccccc3)C2)cn2nc(C(=O)N3CC(O)C3)nc12 [Compound 128],***** (>2.5° C.=*****)
9,CNC(=O)c1nc2c(C#N)cc(N3CC[C@](C)(c4ccccc4)C3)cn2n1 [Compound 338],* (0-0.5° C.=*)
10,Cc1cc(N2CC[C@](C)(c3ccccc3)C2)cn2nc(C(=O)N[C@H]3CNC[C@H]3F)nc12 [Compound 149],***** (>2.5° C.=*****)
11,C[C@]1(c2ccccc2)CCN(c2cc(CO)c3nc(C(=O)N[C@@H]4CCOC4)nn3c2)C1 [Compound 352],***** (>2.5° C.=*****)
12,Cc1cc(N2CC(C)(c3ccccc3)C2)cn2nc(C(=O)N3C[C@@H]4CN(c5cccc(C(=O)O)n5)C[C@@H]4C3)nc12 [Compound 399],***** (>2.5° C.=*****)
13,Cc1cc(N2CC[C@](C)(c3ccccc3)C2)cn2nc(C(=O)NC3CC4(C3)CC(N3CC5C(C3)C5c3nn[nH]n3)C4)nc12 (stereo partly drawn) [Compound 368],***** (>2.5° C.=*****)
14,Cc1cc(N2CC[C@](C)(c3ccccc3)C2)cn2nc(C(=O)NC3CC4(C3)CC(N3CCCC(C(=O)O)C3)C4)nc12 (stereo partly drawn) [Compound 380],***** (>2.5° C.=*****)
15,CC(C)(O)c1cc(N2CC[C@](C)(c3ccccc3)C2)cn2nc(C(=O)NC3CCN(c4cccc(C(=O)O)n4)CC3)nc12 [Compound 340],***** (>2.5° C.=*****)
16,Cc1cc(N2CC[C@](C)(c3ccccc3)C2)cn2nc(C(=O)NC3CCN(CC(=O)O)C3)nc12 (stereo partly drawn) [Compound 192],***** (>2.5° C.=*****)

row,SMILES,DSF
1,C[C@]1(c2ccccc2)CCN(c2cc(CO)c3nc(C(=O)N4CCC5(CCN(c6cccc(C(=O)O)n6)C5)C4)nn3c2)C1 (stereo partly drawn) [Compound 343],***** (>2.5° C.=*****)
2,Cc1cc(N2CC[C@](C)(c3ccccc3)C2)cn2nc(C(=O)N3CCC34CCCN(c3cccc(C(=O)O)n3)C4)nc12 (stereo partly drawn) [Compound 195],***** (>2.5° C.=*****)
3,Cc1nnc(C2(C)CCN(c3cc(C)c4nc(C(=O)N5C[C@@H]6CN(c7cccc(C(=O)O)n7)C[C@@H]6C5)nn4c3)C2)s1 (stereo partly drawn) [Compound 301],* (0-0.5° C.=*)
4,Cc1cc(N2CCC(C)(c3cncc(F)c3)C2)cn2nc(C(=O)N3CC[C@@]4(CCN(c5cccc(C(=O)O)n5)C4)C3)nc12 (stereo partly drawn) [Compound 424],**** (>1.5-2.5° C.=****)
5,Cc1cc(N2CC[C@](C)(c3ccccc3)C2)cn2nc(C(=O)N[C@H]3CNCC34CC4)nc12 [Compound 187],***** (>2.5° C.=*****)
6,Cc1cc(N2CC[C@@](C)(c3ccc(F)cc3)C2)cn2nc(C(=O)N3CC[C@@]4(CCN(c5cccc(C(=O)O)n5)C4)C3)nc12 [Compound 428],***** (>2.5° C.=*****)
7,Cc1cc(N2CC[C@](C)(c3ccccc3)C2)cn2nc([C@@]34CO[C@@H](C3)C(N)C4)nc12 (stereo partly drawn) [Compound 67],**** (>1.5-2.5° C.=****)
8,Cc1cc(N2CC[C@](C)(c3ccccc3)C2)cn2nc(S(=O)(=O)NC3CCNCC3)nc12 [Compound 325],***** (>2.5° C.=*****)
9,Cc1cc(N2CC[C@](CO)(c3ccccc3)C2)cn2nc(C(=O)N3CC[C@@]4(CCN(c5cccc(C(=O)O)n5)C4)C3)nc12 [Compound 332],***** (>2.5° C.=*****)
10,Cc1cc(N2CC[C@](C)(c3ccccc3)C2)cn2nc(C(=O)N3CC4=C(C3)CN(c3cccc(C(=O)O)n3)C4)nc12 [Compound 231],***** (>2.5° C.=*****)
11,"Cc1cc(N2CC[C@](C)(c3ccccc3)C2)cn2nc(C(=O)NC3CC4(CCC4N4CC5C(C4)C5C(=O)O)C3)nc12 (stereo partly drawn) [Compound 31, 3-[2-[[8-methyl-6-[(3R)-3-methyl-3-phenyl-pyrrolidin-1-yl]-[1,2,4]triazolo[1,5-a]pyridine-2-carbonyl]amino]spiro[3.3]heptan-7-yl]-3-azabicyclo[3.1.0]hexane-6-carboxylic acid]",***** (>2.5° C.=*****)
12,CCC(=O)N1CCC(NC(=O)c2nc3c(C)cc(N4CC[C@](C)(c5ccccc5)C4)cn3n2)CC1 [Compound 188],***** (>2.5° C.=*****)
13,Cc1cc(N2CC[C@](C)(c3ccccc3)C2)cn2nc(C(=O)N3CC4CN(c5ccnc(C(=O)O)c5)CC4C3)nc12 (stereo partly drawn) [Compound 278],***** (>2.5° C.=*****)
14,Cc1cc(N2CCC(C)(c3ccccc3F)C2)cn2nc(C(=O)N3CC[C@@]4(CCN(c5cccc(C(=O)O)n5)C4)C3)nc12 (stereo partly drawn) [Compound 426],***** (>2.5° C.=*****)
15,CNC(=O)c1nn2cc(N3CC[C@](C)(c4ccccc4)C3)cc(C)c2c1COC [Compound 333],***** (>2.5° C.=*****)
16,Cc1cc(OC[C@H](C)c2ccccc2)cn2nc(C(=O)N[C@H]3[C@H]4CN[C@@H]3C4)nc12 [Compound 322],***** (>2.5° C.=*****)

# Same assay, conditions: Table B; temperature shift [Tm]compound-[Tm]vehicle; recombinant WIL-FL T46L
row,SMILES,DSF
1,Cc1cc(N2CC[C@](C)(c3ccccc3)C2)cn2nc(C(=O)N3CC4CC(C(=O)O)CC4C3)nc12 (stereo partly drawn) [Compound 592],***** (>2.5° C.=*****)
2,Cc1cc(N2CC[C@](C)(c3ccccc3)C2)cn2nc(C34CC(CO3)C4c3nc(NS(=O)(=O)[C@H]4CC[C@H](C(=O)O)CC4)n[nH]3)nc12 (stereo partly drawn) [Compound 562],***** (>2.5° C.=*****)
3,COC(C)(CC(=O)N1CC2(CC(NC(=O)c3nc4c(C)cc(N5CC[C@](C)(c6ccccc6)C5)cn4n3)C2)C1)C(=O)O (stereo partly drawn) [Compound 679],***** (>2.5° C.=*****)
4,"Cc1cc(N2CC[C@](C)(c3ccccc3)C2)cn2nc(C34CC(CO)(CO3)C4C(=O)O)nc12 (stereo partly drawn) [Compound 575, 4-(hydroxymethyl)-1-(8-methyl-6-((r)-3-methyl-3-phenylpyrrolidin-1-yl)-[1,2,4]triazolo[1,5-a]pyridin-2-yl)-2-oxabicyclo[2.1.1]hexane-5-carboxylic acid]",***** (>2.5° C.=*****)
5,CCC(=O)NCC12COC(c3nc4c(C)cc(N5CC[C@](C)(c6ccccc6)C5)cn4n3)(C1)C2 [Compound 462],***** (>2.5° C.=*****)
6,"Cc1cc(N2CC[C@](C)(c3ccccc3)C2)cn2nc(C(=O)N3CCC4(CCN(c5ccc(C#N)c(C(=O)O)n5)C4)C3)nc12 (mixture of isomers) [Compound 609, 3-cyano-6-[2-[8-methyl-6-[rac-(3R)-3-methyl-3-phenyl-pyrrolidin-1-yl]-[1,2,4]triazolo[1,5-a]pyridine-2-carbonyl]-2,7-diazaspiro[4.4]nonan-7-yl]pyridine-2-carboxylic acid]",***** (>2.5° C.=*****)
7,"Cc1cc(N2CC[C@](C)(c3ccccc3)C2)cn2nc(C34CC(CO3)C4NC(=O)C3(C)CN(c4cccc(C(=O)O)n4)C3)nc12 (stereo partly drawn) [Compound 533, 6-(3-methyl-3-((1-(8-methyl-6-((R)-3-methyl-3-phenylpyrrolidin-1-yl)-[1,2,4]triazolo[1,5-a]pyridin-2-yl)-2-oxabicyclo[2.1.1]hexan-5-yl)carbamoyl)azetidin-1-yl)picolinic acid]",***** (>2.5° C.=*****)
8,Cc1cc(N2CC[C@](C)(c3ccccc3)C2)cn2nc(C34CC(CO3)C4c3nc(NS(=O)(=O)[C@H]4CC[C@@H](C(=O)O)CC4)n[nH]3)nc12 (stereo partly drawn) [Compound 561],***** (>2.5° C.=*****)
9,"Cc1cc(N2CC[C@](C)(c3ccccc3)C2)cn2nc(C34CC(CO3)C4N3CCOCC3)nc12 (stereo partly drawn) [Compound 527, 4-(1-(8-methyl-6-((R)-3-methyl-3-phenylpyrrolidin-1-yl)-[1,2,4]triazolo[1,5-a]pyridin-2-yl)-2-oxabicyclo[2.1.1]hexan-5-yl)morpholine]",***** (>2.5° C.=*****)
10,Cc1cc(N2CC3(CCC3c3cccc(F)c3)C2)cn2nc(C(=O)N3C[C@@H]4CN(c5cccc(C(=O)O)n5)C[C@@H]4C3)nc12 (stereo partly drawn) [Compound 739],***** (>2.5° C.=*****)
11,C[C@]1(c2ccccc2)CCN(c2cc(CO)c3nc(C45CC(CO)(CO4)C5C(N)=O)nn3c2)C1 (stereo partly drawn) [Compound 536],***** (>2.5° C.=*****)
12,Cc1cc(N2CC[C@](C)(c3ccccc3)C2)cn2nc(C(=O)NC3CC4(CCN4c4cccc(C(=O)O)n4)C3)nc12 (stereo partly drawn) [Compound 667],***** (>2.5° C.=*****)
13,"Cc1cc(N2CC3(CC[C@@]3(C)c3ccccc3)C2)cn2nc(C(=O)N3CC[C@@]4(CCN(c5cccc(C(=O)O)n5)C4)C3)nc12 [Compound 743, 6-[(5R)-2-[8-methyl-6-[(7S)-7-methyl-7-phenyl-2-azaspiro[3.3]heptan-2-yl]-[1,2,4]triazolo[1,5-a]pyridine-2-carbonyl]-2,7-diazaspiro[4.4]nonan-7-yl]pyridine-2-carboxylic acid]",***** (>2.5° C.=*****)
14,Cc1cc(N2CC[C@](C)(c3ccccc3)C2)cn2nc(C(=O)N3CC[C@@]4(CCN(C(=O)C5CC56CC(C(=O)O)C6)C4)C3)nc12 (stereo partly drawn) [Compound 734],***** (>2.5° C.=*****)
15,CCS(=O)(=O)NCC12COC(c3nc4c(C)cc(N5CC[C@](C)(c6ccccc6)C5)cn4n3)(C1)C2 [Compound 463],***** (>2.5° C.=*****)
16,"Cc1cc(N2CC[C@](C)(c3ccccc3)C2)cn2nc(C(=O)NC3CN(c4cccc(C(=O)O)n4)CC4(COC4)C3)nc12 (stereo partly drawn) [Compound 699, 6-[6-[[8-methyl-6-[(3R)-3-methyl-3-phenyl-pyrrolidin-1-yl]-[1,2,4]triazolo[1,5-a]pyridine-2-carbonyl]amino]-2-oxa-8-azaspiro[3.5]nonan-8-yl]pyridine-2-carboxylic acid]",***** (>2.5° C.=*****)
